Results as given in US20210292755A1, “NOVEL DOUBLE-STRANDED OLIGONUCLEOTIDES FOR THE TREATMENT OF CANCER” (SELEXEL, priority 2016, published 2021).

Legend:
[1] = test system: AR-encoding mRNA; assay: RT-qPCR of AR-encoding mRNA after siRNA transfection; type: cell-based, human; details: for AR mRNA expression: both lines
Protocol: (§1) All the cells used in the following examples are human cells and express H2AX.
(§2) The cells are cultured in DMEM or RPMI supplemented with 10% fetal calf serum, or as recommended by the ATCC. When indicated, they are transfected with siRNA using lipofectamine (Life Technologies), following the supplier's protocol. The number of living cells after the indicated treatments was quantified by measuring their metabolic activity by the WST1 test according to the supplier's indications (Roche).
(§3) The effect of siRNA transfection and/or treatments by different chemotherapeutic agents on gene expression was measured: • by RT-qPCR quantification of mRNAs extracted by a conventional phenol-chloroform method (Trizol). The amount of RNA was normalized by measuring the cyclophilin A-encoding mRNA which is not regulated by AR (delta delta CT method). • by Western blotting on protein extracts. The antibodies used are: AR: Santacruz, N-20 sc-816; H2AX: Merck Millipore ref 07-627; Tubulin: Sigma T6199; Actin: Merck Millipore MAB 1501; γH2AX: Merck Millipore 05-636. […] The antibodies used are the following: γH2AX: Merck Millipore 05-636; 53BP1: Novus, NB 100-304.

[2] = test system: H2AX-encoding mRNA; assay: RT-qPCR of H2AX-encoding mRNA after siRNA transfection; type: cell-based, human; details: for H2AX mRNA expression: both lines
Protocol: as §1, §2, §3

[3] = test system: C4-2 cells; assay: WST1 cell viability test; type: cell-based, human
Protocol: as §1, §2

[4] = test system: MDA MB231 cells; assay: WST1 cell viability test; type: cell-based, human; details: for cell viability, siRNA combined with etoposide: 40 μl of etoposide added 24 hours after transfection, WST1 48 h later
Protocol: as §1, §2

[5] = test system: H2AX; assay: Western blot of H2AX after siRNA transfection; type: cell-based, human; details: C4-2 cells, 72 h after transfection
Protocol: as §1, §2, §3

[6] = test system: 22RV1 cells; assay: WST1 cell viability test; type: cell-based, human; details: 72 hr after transfection
Protocol: as §1, §2

[7] = test system: MDA MB-453 cells; assay: WST1 cell viability test; type: cell-based, human; details: 72 hr after transfection
Protocol: as §1, §2

[8] = test system: U87 cells; assay: WST1 cell viability test; type: cell-based, human; details: 72 hr after transfection
Protocol: as §1, §2

[9] = test system: WM266-4 cells; assay: WST1 cell viability test; type: cell-based, human; details: for cell viability, siRNA combined with etoposide: 40 μl of etoposide added 24 hours after transfection, WST1 48 h later
Protocol: as §1, §2

[10] = test system: AR; assay: Western blot of AR after siRNA transfection; type: cell-based, human; details: C4-2 cells, 72 h after transfection
Protocol: as §1, §2, §3

[11] = test system: 22RV1 human prostatic tumor; assay: Subcutaneous tumor volume in mice; type: in vivo; details: twice a week
Protocol: Tumors are obtained by subcutaneous injection of tumor cells into the flank of Nude mice. Only animals on which tumor uptake is found are included in the study and randomized to receive treatment or control treatment.
When indicated, the continuous administration of siRNA is carried out by implantation of an Alzet osmotic pump subcutaneously on the back of the mice, on the opposite side to the tumor when the mice wear one. The concentration of siRNA in the pump is adjusted to deliver the indicated amount in mg/kg/day taking into account the pump flow rate indicated by the manufacturer.
The subcutaneous tumors volume is estimated by measuring with a calliper the largest (D), the smallest (d) diameter of the tumors and their height (h). The volume is calculated by the formula V=D×d×h×Pi/6.

[12] = test system: γH2AX; assay: Indirect immunofluorescence of γH2AX, bleomycin-treated transfected cells; type: cell-based, human
Protocol: (§4) FIG. 8: Immuno detection of γH2AX (first column) and 53BP1 (second column) in C4-2 cells treated for 6 h with bleomycin ([…]) or the vehicle added 72 h after transfection of cells by a control siRNA (Cont), siAR7 siRNA, or siARH2AX-1.
as §1, §2, §3
(§5) In the experiment shown in FIG. 8, C4-2 cells were transfected with a control or siARH2AX-1 siRNA. 72 hours after transfection, the cells were then treated for 6 hours with […] of bleomycin or the corresponding vehicle.

[13] = test system: 53BP1; assay: Indirect immunofluorescence of 53BP1, bleomycin-treated transfected cells; type: cell-based, human; details: C4-2 cells transfected with Cont siRNA, 6 hours with 10 μl of bleomycin
Protocol: as §4, §1, §2, §3, §5

[14] = test system: PSA-encoding mRNA; assay: RT-qPCR of PSA-encoding mRNA after siRNA transfection; type: cell-based, human; details: LNCaP or C4-2 cells, both lines, 72 hours after transfection
Protocol: as §1, §2, §3
In the experiment shown in FIG. 4, the LNCaP or C4-2 tumor cells were transfected with the following siRNAs: Cont, siAR7 or siARH2AX-1.

[15] = test system: LNCaP cells; assay: WST1 cell viability test; type: cell-based, human; details: 72 hr after transfection
Protocol: as §1, §2

[16] = C4-2 cells, 48 hours after transfection, relative to control siRNA
[17] = LNCaP or MDA MB-453 cells, 72 h after transfection
[18] = LNCaP or C4-2 cells, 72 hours after transfection

Question: Which results are given for “siAR2: siRNA inhibiting AR described in PCT/FR2002/003843, SEQ ID NO 9 and SEQ ID NO 10 (chain 1 GACUCAGCUGCCCCAUCCACGNN; chain 2 CGUGGAUGGGGCAGCUGAGUCNN; chemistry not fully specified)”?
Answer: AR expression (mRNA) [1, 16]: inhibit AR expression in a similar manner; H2AX expression (mRNA) [2, 16]: considerably less effective at inhibiting the expression of H2AX; cell viability ([3]; 90 hours after transfection): only marginally; cell viability, siRNA combined with bleomycin ([3]; bleomycin (10 μM) added 48 hours after transfection, read 48 hours later, versus chemotherapeutic agent alone): does not produce a significantly greater viability-inhibiting effect; cell viability, siRNA combined with etoposide ([3]; etoposide (10 μM) added 48 hours after transfection, read 48 hours later, versus chemotherapeutic agent alone): does not produce a significantly greater viability-inhibiting effect; cell viability ([4]; 90 hours after transfection): only marginally

Question: “siH2AX: siRNA hybridizing with H2AX mRNA but not with that of AR; SEQ ID NO 15 and 16 (chain 1 CUGGAAUUCUGCAGCUAACNN; chain 2 GUUAGCUGCAGAAUUCCAGNN; chemistry not fully specified)” was tested. Which “H2AX mRNA expression” value [2, 17] did it give?
Answer: The value was “inhibits H2AX”.

Question: What about the H2AX protein expression [5] of the same molecule?
Answer: The H2AX protein expression was “inhibits H2AX”.

Question: And the “cell viability / proliferation” value [6]?
Answer: The value was “has little effect on cell proliferation”.

Question: And the “cell viability / proliferation” value [7]?
Answer: Its value is “has little effect on cell proliferation”.

Question: And the “cell viability, siRNA combined with etoposide” value (“cell viability … with etoposide” for short) [4]?
Answer: The value was “no amplification of the effects of etoposide”.

Question: And the “cell viability / proliferation” value ([4]; 72 hr after transfection)?
Answer: Its value is “has little effect on cell proliferation”.

Question: And the “cell viability / proliferation” value [8]?
Answer: Its value is “has little effect on cell proliferation”.

Question: And the “cell viability … with etoposide” value [9]?
Answer: Its value is “no amplification of the effects of etoposide”.

Question: And the “cell viability / proliferation” value ([9]; 72 hr after transfection)?
Answer: The value was “has little effect on cell proliferation”.

Question: With “siARh: siRNA hybridizing with a sequence of the first exon of AR, not H2AX; SEQ ID NO 11 and 12 (chain 1 UCCCCAAGCCCAUCGUAGANN; chain 2 UCUACGAUGGGCUUGGGGANN; chemistry not fully specified)” as the molecule, how does the “AR mRNA expression” value [1, 17] read?
Answer: Its value is “inhibits AR”.

Question: What about the AR protein expression [10] of the same molecule?
Answer: Its AR protein expression is “inhibits AR”.

Question: What about the “cell viability / proliferation” value [6] of the same molecule?
Answer: The value was “inhibit the proliferation”.

Question: And the “cell viability … with etoposide” value [4]?
Answer: Its value is “no amplification of the effects of etoposide”.

Question: And the “cell viability … with etoposide” value [9]?
Answer: Its value is “no amplification of the effects of etoposide”.

Question: How did the tumor development ([11]; etoposide 5 mg/kg intraperitoneal) turn out when `COc1cc([C@@H]2c3cc4c(cc3[C@@H](O[C@@H]3O[C@@H]5CO[C@@H](C)O[C@H]5[C@H](O)[C@H]3O)[C@H]3COC(=O)[C@H]23)OCO4)cc(OC)c1O` [etoposide] was run?
Answer: Its tumor development is “only slightly inhibits tumor development”.

Question: What about the tumor development ([11]; etoposide 15 mg/kg intraperitoneal) of the same molecule?
Answer: The tumor development was “produces an inhibition”.

Question: How did the “expression of γH2AX” value ([12]; C4-2 cells transfected with Cont siRNA, 6 hours with 10 μl of bleomycin) turn out when bleomycin was run?
Answer: The value was “strongly increases”.

Question: And the 53BP1 labeling [13]?
Answer: Its 53BP1 labeling is “becomes punctiforme”.

Question: Which results are given for “siAR7: siRNA hybridizing with a sequence of the 7th exon of AR, not H2AX; SEQ ID NO 13 and 14 (chain 1 AAUGAUACGAUCGAGUUCCNN; chain 2 GGAACUCGAUCGUAUCAUUNN; chemistry not fully specified)”?
Answer: AR mRNA expression [1, 18]: inhibit the expression of AR and PSA; H2AX mRNA expression [2, 18]: only siARH2AX-1 also inhibits the expression of H2AX; PSA mRNA expression [14]: inhibit the expression of AR and PSA; γH2AX labeling after bleomycin ([12]; siRNA-transfected C4-2 cells, 72 hours after transfection, bleomycin 6 hours): increase in γH2AX labeling; cell viability / proliferation ([3]; 72 hr after transfection): inhibit the proliferation; cell viability / proliferation [15]: inhibit the proliferation
